Patent publication US20110201499A1, “Method of Improving Plant Yield of Soybeans by Treatment with Herbicides” (priority 2010, published 2011)

System: Soybean (FG72 trait)
Test: in-field research trial of herbicidal treatment effect on soybean yield
Assay type: in vivo
Conditions: isoxaflutole 35 g ai/ha soil treatment pre-emergence, then one application of glyphosate 1060 g ai/ha plus ammonium sulfate 2850 g ai/ha; weed free check = 100%; averaged across four replications; moisture standardized; Fithian, Ill.
From the text: Soybean seed was secured for an in-field research trial. The soybean seed is genetically modified to be tolerant to applications of HPPD (4-hydroxyphenyl-pyruvate-dioxygenase) inhibiting herbicides (example: BALANCE PRO or isoxaflutole) and glyphosate (ROUNDUP ORIGINAL MAX). The trait is known as FG72.
The site was conventionally tilled and free of weeds at the time of planting. The soybean seed was planted in 30″ rows on Jun. 18, 2008. Broadcast spray treatments of a first herbicidal treatment composition comprising isoxaflutole were applied using a tractor mounted sprayer on Jun. 20, 2008. All areas of the field, including a weed-free check (control) that was not treated with isoxaflutole, were additionally treated on Jun. 20, 2008, with PURSUIT PLUS herbicide, a combination of 2.24% imazethapyr and 30.24% pendimethalin, available from BASF. The application was made prior to soybean and weed emergence.
To avoid any interference of weed effects on yield in the trial, the entire trial site was kept weed free for the entire growing season. […]
The trial was evaluated for herbicidal treatment effect on yield. […] Data was entered into and analyzed with ARM computer software. […] Treatment differences were determined using least significant differences (LSD, P=0.05).

CS(=O)(=O)c1cc(C(F)(F)F)ccc1C(=O)c1cnoc1C1CC1 [isoxaflutole, 5-cyclopropyl-4-(2-methylsulfonyl-4-trifluoromethylbenzoyl) isoxazole]
soybean seed yield as percent of the weed free check: 108.5%
